# Key:
# Type in all cases: in vivo, rat
# [1] = test system: sciatic nerve; assay: Counts of myelinated axons 5.0 mm distal to repair by light microscopy; settings: for Counts of Myelinated Axons - 5.0 mm Distal to Repair by Light Microscopy 1.0 X 10^5 µm^2 - of Area: 12 mg/kg in 5% DMSO, bath + i.m. twice weekly; for % Difference Treated vs. Control: myelinated axons distal, light microscopy
# Description: (§1) lwenty raty art anenthetizve with sel rompun (0.5 cc total volume). The right sciatic nerve is exposed and severed with microneuroscissors, and subsequently repaired microsurgically with 6-8 circumferential microsutures using 10-0 nylon. Immediately following surgery the treated animals receive 12 mg/kg Ac leupeptin in 5% DMSO (dimethylsulphoxide) as a bath on their sciatic nerve, 0.25 cc. total volume. Then the treated animals are injected intramuscularly in right hindlimb with 0.25 cc of a solution containing 12 mg/kg Ac leupeptin in 5% DMSO. Control animals receive the same surgical treatment, but the bath and intramuscular injection consist only of the solvent and 5% DMSO.
# (§2) Thereafter, treated animals are injected twice weekly in the operated hindlimb with 12 mg/kg Ac leupeptin in 5% DMSO (0.25 cc total volume) for periods of 1 week, 1 month, two months, three months - and six months. Control animals are injected with 0.25 cc of 5% DMSO twice weekly in the operated hindlimb for the same time period.
# (§3) Two treated and two control animals are assigned to each of the stated time periods.
# (§4) A ten mm. portion of the repaired sciatic nerve is excised from each animal. This is fixed in 3.0% glutaraldehyde in 0.1 M sodium cacodylate, pH 7.3, overnight for electron microscopy. After post-fixation in 1.0% osmium tetroxide, ethanol dehydration and embedding in Polybed 812, both thick (1 micron) and thin (500 A°) transverse sections are cut on a ultramicrotome. Portions of the excised muscles receive similar preparation for electron microscopy.
# (§5) Thick sections of the sciatic nerve are placed on microscope slots stained with toluidine blue and photographed at a constant magnification in the light microscope. Thin sections of both nerve and muscles are placed on 300 mesh copper grid calm, stained with uranyl acetate and lead citrate and photographed using a Hitachi HU-12 electron microscope.
# [2] = test system: muscles of the operated hindlimb; assay: Wet weight of hindlimb muscles after sciatic nerve severing and microsurgical repair; settings: for Average Wet Weight (g) of Muscles: 12 mg/kg in 5% DMSO, bath + i.m. twice weekly; for % Weight (+)gain or (-)loss Treated vs. Control / % Weight (+) gain (-) loss Treated vs. control / % Weight (+)gain or (-)loss: muscle wet weight; for % Weight (+) gain (-) loss Treated vs. control: One Week; for % Weight (+)gain or (-)loss: Three Month, treated vs. control
# Description: as §1, §2, §3
# All animals are sacrified by an overdose of pentobarbital, 1.0 cc total volume. The gastro- cnemius, soleus and extensor digitorum longus muscles of the operated hindlimb are execised from origin to insertion, weighed and then frozen in isopentane in liquid nitrogen […]. For light microscopy, cryostat sections are cut, placed on slides and stained with hematoxylin and eosin and/or ATPase histochemistry at pH's of 4.3 and 10.4. Myofiber diameters are determined by photographing hematoxylin and eosin sections at a constant magnification in the light microscope.
# [3] = test system: sciatic nerve; assay: Counts of myelinated axons 5.0 mm proximal to repair by light microscopy; settings: for Counts of Myelinated Axons - 5.0mm. Proximal to Repair by Light Microscopy 1.0 X 10^5 µm^2 - of Area: 12 mg/kg in 5% DMSO, bath + i.m. twice weekly; for % Difference: treated vs. control
# Description: as §1, §2, §3, §4, §5
smiles,measurement,setting,value
"CC(=O)N[C@@H](CC(C)C)C(=O)N[C@@H](CC(C)C)C(=O)N[C@H](C=O)CCCNC(=N)N [Ac leupeptin, acetyl-L-leu-L-leu-L-argininal]",Counts of Myelinated Axons - 5.0 mm Distal to Repair by Light Microscopy 1.0 X 10^5 µm^2 - of Area,[1]; One Month Treated,1467 1.0 X 10^5 µm^2 - of Area
same,Counts of Myelinated Axons - 5.0 mm Distal to Repair by Light Microscopy 1.0 X 10^5 µm^2 - of Area,[1]; One Week Treated,722 1.0 X 10^5 µm^2 - of Area
same,Counts of Myelinated Axons - 5.0 mm Distal to Repair by Light Microscopy 1.0 X 10^5 µm^2 - of Area,[1]; Six Month Treated,1620 1.0 X 10^5 µm^2 - of Area
same,Counts of Myelinated Axons - 5.0 mm Distal to Repair by Light Microscopy 1.0 X 10^5 µm^2 - of Area,[1]; Three Month Treated,2808 1.0 X 10^5 µm^2 - of Area
same,Counts of Myelinated Axons - 5.0 mm Distal to Repair by Light Microscopy 1.0 X 10^5 µm^2 - of Area,[1]; Two Month Treated,1625 1.0 X 10^5 µm^2 - of Area
same,% Difference Treated vs. Control,[1]; One Month,+2%
same,% Difference Treated vs. Control,[1]; One Week,+1%
same,% Difference Treated vs. Control,[1]; Six Month,0%
same,% Difference Treated vs. Control,[1]; Three Month,+1%
same,% Difference Treated vs. Control,[1]; Two Month,+12%
same,Average Wet Weight (g) of Muscles,"[2]; One Month Treated, E.D.L.",0.198 g
same,Average Wet Weight (g) of Muscles,"[2]; One Month Treated, GASTROCNEMIUS",.954 g
same,Average Wet Weight (g) of Muscles,"[2]; One Month Treated, SOLEUS",.379 g
same,Average Wet Weight (g) of Muscles,"[2]; One Week Treated, E.D.L.",0.116 g
same,Average Wet Weight (g) of Muscles,"[2]; One Week Treated, GASTROCNEMIUS",2.379 g
same,Average Wet Weight (g) of Muscles,"[2]; One Week Treated, SOLEUS",0.335 g
same,Average Wet Weight (g) of Muscles,"[2]; Six Month Treated, E.D.L.",0.163 g
same,Average Wet Weight (g) of Muscles,"[2]; Six Month Treated, GASTROCNEMIUS",1.577 g
same,Average Wet Weight (g) of Muscles,"[2]; Six Month Treated, SOLEUS",0.306 g
same,Average Wet Weight (g) of Muscles,"[2]; Three Month Treated, E.D.L.",0.178 g
same,Average Wet Weight (g) of Muscles,"[2]; Three Month Treated, GASTROCNEMIUS",1.563 g
same,Average Wet Weight (g) of Muscles,"[2]; Three Month Treated, SOLEUS",0.248 g
same,Average Wet Weight (g) of Muscles,"[2]; Two Months Treated, E.D.L.",0.202 g
same,Average Wet Weight (g) of Muscles,"[2]; Two Months Treated, GASTROCNEMIUS",1.371 g
same,Average Wet Weight (g) of Muscles,"[2]; Two Months Treated, SOLEUS",0.425 g
same,average wet weight in grams in treated muscles,"[2]; all time periods and muscles, vs. control",significantly greater than control
same,% Weight (+)gain or (-)loss Treated vs. Control,"[2]; One Month, E.D.L.",+62%
same,% Weight (+)gain or (-)loss Treated vs. Control,"[2]; One Month, GASTROCNEMIUS",+30%
same,% Weight (+)gain or (-)loss Treated vs. Control,"[2]; One Month, SOLEUS",+19%
same,% Weight (+) gain (-) loss Treated vs. control,[2]; E.D.L.,+18%
same,% Weight (+) gain (-) loss Treated vs. control,[2]; GASTROCNEMIUS,+37%
same,% Weight (+) gain (-) loss Treated vs. control,[2]; SOLEUS,+13%
same,% Weight (+)gain or (-)loss Treated vs. Control,"[2]; Six Month, E.D.L.",+18%
same,% Weight (+)gain or (-)loss Treated vs. Control,"[2]; Six Month, GASTROCNEMIUS",+15%
same,% Weight (+)gain or (-)loss Treated vs. Control,"[2]; Six Month, SOLEUS",+23%
same,% Weight (+)gain or (-)loss,[2]; E.D.L.,+13%
same,% Weight (+)gain or (-)loss,[2]; GASTROCNEMIUS,+18%
same,% Weight (+)gain or (-)loss,[2]; SOLEUS,+9%
same,% Weight (+)gain or (-)loss Treated vs. Control,"[2]; Two Months, E.D.L.",+43%
same,% Weight (+)gain or (-)loss Treated vs. Control,"[2]; Two Months, GASTROCNEMIUS",+14%
same,% Weight (+)gain or (-)loss Treated vs. Control,"[2]; Two Months, SOLEUS",+9%
same,Counts of Myelinated Axons - 5.0mm. Proximal to Repair by Light Microscopy 1.0 X 10^5 µm^2 - of Area,[3]; One Month Treated,1162 1.0 X 10^5 µm^2 - of Area
same,Counts of Myelinated Axons - 5.0mm. Proximal to Repair by Light Microscopy 1.0 X 10^5 µm^2 - of Area,[3]; One Week Treated,1089 1.0 X 10^5 µm^2 - of Area
same,Counts of Myelinated Axons - 5.0mm. Proximal to Repair by Light Microscopy 1.0 X 10^5 µm^2 - of Area,[3]; Six Month Treated,1748 1.0 X 10^5 µm^2 - of Area
same,Counts of Myelinated Axons - 5.0mm. Proximal to Repair by Light Microscopy 1.0 X 10^5 µm^2 - of Area,[3]; Three Month Treated,2200 1.0 X 10^5 µm^2 - of Area
same,Counts of Myelinated Axons - 5.0mm. Proximal to Repair by Light Microscopy 1.0 X 10^5 µm^2 - of Area,[3]; Two Month Treated,1111 1.0 X 10^5 µm^2 - of Area
same,% Difference Treated Vs. Control,"[3]; myelinated axons proximal, light microscopy, One Month",+7%
same,% Difference Treated vs. Control,"[3]; myelinated axons proximal, light microscopy, One Week",+16%
same,% Difference Treated vs. Control,"[3]; myelinated axons proximal, light microscopy, Six Month",+30%
same,% Difference,"[3]; myelinated axons proximal, light microscopy, Three Month",+46%
same,% Difference,"[3]; myelinated axons proximal, light microscopy, Two Month",+8%
